From publication PMC10175918 (Communications Biology, 2023) come the findings set out here.

Assay [1] addresses T1, urotensin-II receptor (UTS2R) (Homo sapiens, UniProt Q9UKP6).
T1 construct: expressed in transfected cells; host or cells: HEK293A
T1 sequence (Q9UKP6 1-389): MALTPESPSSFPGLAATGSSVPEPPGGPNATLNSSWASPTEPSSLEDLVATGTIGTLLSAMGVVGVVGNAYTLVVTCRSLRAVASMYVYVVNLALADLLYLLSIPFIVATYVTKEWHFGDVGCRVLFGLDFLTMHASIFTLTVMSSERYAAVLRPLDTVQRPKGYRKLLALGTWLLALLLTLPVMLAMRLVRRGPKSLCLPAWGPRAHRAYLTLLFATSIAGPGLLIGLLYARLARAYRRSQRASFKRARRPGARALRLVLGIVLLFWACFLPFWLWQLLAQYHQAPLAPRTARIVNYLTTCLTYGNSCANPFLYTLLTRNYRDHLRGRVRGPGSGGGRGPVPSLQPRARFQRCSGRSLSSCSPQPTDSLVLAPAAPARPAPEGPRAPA
As to the kind of experiment: TGFα-shedding assay, concentration-response on UTS2R (endogenous G protein), with or without urantide. The format is cell-based. The following applies: for UTS2R activation: TGFα-shedding, screening 10 μM and response curves (Fig. 1a, Supplementary Fig. 1a).

The target in assay [2] is T2, FLAG-UTS2R (urotensin-II receptor) (human) (UniProt Q9UKP6).
T2 sequence: T1 sequence (Q9UKP6 1-389)

Turning to `N#C[C@@]1(c2ccc3c(N)ncnn23)O[C@H](CO)[C@@H](O)[C@H]1O` [GS-441524], the UTS2R activation result in assay [1] is reported as “no effect on UTS2R activation”.

For orientation: Emax means the maximal effect, on the per cent scale that the assay sets. For the molecule `CC(C)[C@H](NC(=O)[C@@H]1CSSC[C@H](NC(=O)[C@H](CC(=O)O)NC(=O)[C@@H]2CCCN2C(=O)[C@@H](NC(=O)[C@@H](N)CCC(=O)O)[C@@H](C)O)C(=O)N[C@@H](Cc2ccccc2)C(=O)N[C@@H](Cc2c[nH]c3ccccc23)C(=O)N[C@@H](CCCCN)C(=O)N[C@@H](Cc2ccc(O)cc2)C(=O)N1)C(=O)O` [UT2], in assay [1] (WT UTS2R, without chimeric Gα protein, read-out: Emax), the Emax turned out to be 59 ± 0.7%. For the same molecule, in assay [1] (compound concentration Log10 (M) -7, without urantide, read-out: UTS2R activation (%AP-TGFα release)), the activation at 0.1 µM worked out at 59.6%. In addition, the activation at 0.01 µM in assay [1] (compound concentration Log10 (M) -8, without urantide, read-out: UTS2R activation (%AP-TGFα release)) came out at 60.1%. Moreover, in assay [1] (compound concentration Log10 (M) -9, without urantide, read-out: UTS2R activation (%AP-TGFα release)), the activation at 0.001 µM came out at 58.8%. Moreover, in assay [1] (compound concentration Log10 (M) -10, without urantide, read-out: UTS2R activation (%AP-TGFα release)), the activation at 0.0001 µM was found to be 51.6%. Also, in assay [1] (compound concentration Log10 (M) -11, without urantide, read-out: UTS2R activation (%AP-TGFα release)), the activation at 10 pM was 18.4%.

For the molecule `C[C@H](NP(=O)(O)OC[C@H]1O[C@@](C#N)(c2ccc3c(N)ncnn23)[C@H](O)[C@@H]1O)C(=O)O` [GS-704277], in assay [1], the UTS2R activation result is “no effect on UTS2R activation”.

In assay [2], ETPDCFWKYCV [urotensin-II (UT2), endogenous peptidic ligand of UTS2R] registered a TGFα-shedding assay (AP-TGFα release), untagged UTS2R in HEK293A cells: Emax of receptor activation by UT2 (%AP-TGFα release) of 59 and a TGFα-shedding assay (AP-TGFα release), untagged UTS2R in HEK293A cells: pEC50 of receptor activation by UT2 of 10.7.
